The values that follow come from PMC5974403, “The novel histone de acetylase 6 inhibitor, MPT0G211, ameliorates tau phosphorylation and cognitive deficits in an Alzheimer’s disease model” (Cell Death & Disease, 2018).

For assay [1], the system named is SH-SY5Y cells. Briefly: Western blot of acetyl-α-tubulin and acetyl-histone, SH-SY5Y cells. In kind it is cell-based, human. Conditions: 0.1 to 1 μM, 24 h. Here is the method: (§1) Cell viabilities were determined by MTT assay. The results represent the mean ± SEM of three independent experiments; *p < 0.05, **p < 0.01 and ***p < 0.001 compared with controls TEXT PRINTED IN THE PICTURE: (A) no label printed: M.W. 293.32
(§2) Cells (1 × 10^6) were incubated for 10 min at 4 °C in lysis buffer (20 mM HEPES, pH 7.4, 2 mM EGTA, 50 mM β-glycerophosphate, 0.1% Triton X-100, 10% glycerol, 1 mM dithiothreitol, 1 μg/mL leupeptin, 5 μg/mL aprotinin, 1 mM phenylmethylsulfonyl fluoride, and 1 mM sodium orthovanadate), scraped from the plate, incubated on ice for 10 min, and centrifuged at 17,000 × g for 30 min at 4 °C. Protein samples (30 μg) were electrophoresed through sodium dodecyl sulfate-polyacrylamide gels (SDS-PAGE) and transferred onto a nitrocellulose membrane, which was then blocked by incubation for 30 min at room temperature with 5% fat-free milk in PBS. Immunoblotting was performed by overnight incubation at 4 °C with primary antibodies in PBS, followed by incubation for 1 h at room temperature with HRP-conjugated secondary antibodies. Bound antibodies were measured using ECL reagent (T-Pro Biotechnology, New Taipei City, Taiwan), and the membrane was placed on a photographic film. Cell lysates (30 μg) were incubated with antibodies (1 μg each) and protein A/G agarose beads overnight at 4 °C. The precipitated beads were washed three times with 1 mL of ice-cold cell lysis buffer, and bound immune complexes were separated using 8% SDS-PAGE, followed by immunoblotting using the indicated primary antibody.
In general terms: In western blotting, separated proteins are transferred to a membrane and probed.

Assay [2] relates to Neuro-2a cells. Briefly: Western blot of acetyl-α-tubulin and acetyl-histone, Neuro-2a cells. Format: cell-based, mouse. As to conditions: 0.1 to 1 μM, 24 h. Here is the method: as §1, §2
For assay [3], the system named is SH-SY5Y cells. In words: Flow cytometry of sub-G1 (PI) and annexin V/PI in transfected SH-SY5Y cells. In kind it is cell-based, human. Conditions: hAPP + hTauP301L transfected SH-SY5Y, 0.1 μM, 24 h. The procedure: The fractionation scheme used to separate different cellular pools of tau, and the western blot analysis of the effects of the compounds on tau pools generated using the fractionation scheme are presented. b, d SH-SY5Y cells were transfected for 24 h with pCAX APP 695 and pRK5-EGFP-Tau P301L, incubated with or without MPT0G211 or ACY-1215 (0.1 μM) for another 24 h, and then the cells were fixed and stained by propidium iodide (b) or annexin V/PI double staining (d) and analyzed by flow cytometry. c, e Percentages of the subG1 phase (c) or annexin V-positive cells (e) in response to drug treatment as explained in (b). Results are presented as the mean ± SEM. *p < 0.05 and **p < 0.01 compared with the control group; ^#p < 0.05 and ^##p < 0.01 compared with the indicated groups TEXT PRINTED IN THE PICTURE: (B) MPT0G211: hAPP + hTauP301L: SubG1 10.91% | (B) ACY-1215: hAPP + hTauP301L: SubG1 15.40% | (D) MPT0G211: hAPP + hTauP301L: 9.56%; hAPP + hTauP301L: 11.26% | (D) ACY-1215: hAPP + hTauP301L: 9.28%; hAPP + hTauP301L: 11.25%
After drug treatment, the cells were collected, washed with cold phosphate-buffered saline (PBS), and fixed with 75% alcohol overnight at −20 °C. After centrifugation, the fixed cells were washed with cold PBS and resuspended in DNA extraction buffer (0.2 M Na2HPO4, 0.1 M citric acid, pH 7.8) for 30 min. The cells were centrifuged and incubated with propidium iodide (PI) (0.1% Triton X-100, 100 μg/mL RNase A, and 80 μg/mL PI in PBS) for 30 min. The cell cycle was analyzed using a FACScan Flow cytometer and Cell Quest software (Becton Dickinson, Mountain View, CA, USA).
In general terms: Flow cytometry measures light scatter and fluorescence of single cells or particles in a stream.

Assay [4] concerns SH-SY5Y cells. In words: Western blot of tau phosphorylation and kinases in SH-SY5Y cells transfected with pCAX APP 695 and pRK5-EGFP-Tau P301L. As to conditions: SH-SY5Y transfected, MG132 1 μM 30 min before MPT0G211 0.1 μM 24 h. In kind it is cell-based, human. The procedure:
(§3) Images represented magnification at ×100. b Cells were transfected with pCAX APP 695 for 24 h, harvested, and cell lysates were subjected to Western blotting. c, d SH-SY5Y and Neuro-2a cells were transfected with pCAX APP 695 and/or pRK5-EGFP-Tau P301L for 24 h. Cell lysates were prepared for western blot analysis of the indicated proteins. e, f Cells were transfected with pCAX APP 695 and pRK5-EGFP-Tau P301L for 24 h and were then incubated with or without MPT0G211 or ACY-1215 (0.1 μM) for another 24 h. Cell lysates were subjected to western blot analysis using the indicated antibodies. Results are presented as the mean ± SEM from three independent experiments. **p < 0.01, ***p < 0.001 compared with the control group; ^#p < 0.05, ^##p < 0.01 compared with the indicated groups
(§4) Cell lysates were prepared for western blot analysis of the indicated proteins. Results are presented as the mean ± SEM. *p < 0.05, **p < 0.01, and ***p < 0.001 compared with the control group; ^#p < 0.05, ^##p < 0.01, ^###p < 0.001 compared with the indicated groups
(§5) Cells were seeded 1 day before transfection. The plasmids pCAX FLAG APP and pRK5-EGFP-Tau P301L (1 μg each) and 1 μL of TurboFect transfection reagent were mixed for 20 min at room temperature, added to the cells, and the suspensions were incubated for 24 h at 37 °C in a humidified atmosphere containing 5% CO2.
as §2

The subject of assay [5] is Neuro-2a cells. In words: Western blot of tau phosphorylation and kinases in Neuro-2a cells transfected with pCAX APP 695 and pRK5-EGFP-Tau P301L. As to conditions: Neuro-2a transfected, MG132 1 μM 30 min before MPT0G211 0.1 μM 24 h. Format: cell-based, mouse. Here is the method:
as §3, §4, §5, §2

The mark [6] stands for this setting: Fig. 3d picture, quadrant not identified.

Peptide text beside a SMILES is read from it. * marks the point of attachment. Cbz = O=C(OCc1ccccc1)*

On to `O=C(CCCCCCNC(=O)c1cnc(N(c2ccccc2)c2ccccc2)nc1)NO` [ACY-1215, reference compound], for which the “acetylation of α-tubulin” value in assay [1] and in assay [2] was “less acetylation of α-tubulin” throughout. Besides, the SubG1 population in assay [3] (PI staining, Fig. 3b picture) stood at 15.40%. Also, the “annexin V/PI double staining, quadrant percentage” value in assay [3] (setting [6]) was 11.25%. Besides, the “annexin V/PI double staining, quadrant percentage (first value)” value in assay [3] (setting [6]) came out at 9.28%.

On to `CC(C)C[C@@H](C=O)NC(=O)[C@H](CC(C)C)NC(=O)[C@H](CC(C)C)NC(=O)OCc1ccccc1` [MG132, reference compound] (Cbz-Leu-Leu-Leu-aldehyde), for which the “effect on MPT0G211-induced inhibition of p-tau at Ser396” value in assay [4] and in assay [5] was “significantly reversed” throughout.

`O=C(CCCCCCC(=O)Nc1ccccc1)NO` [SAHA]: in assay [1], the acetylation of histones entry is “significantly increased” and the “acetylation of α-tubulin” value is reported as “significantly increased”. For the same molecule, in assay [2], the acetylation of histones entry is on record as “significantly increased” and the “acetylation of α-tubulin” value is given as “significantly increased”.
